The subject of series [1] is NB-4. The series can be described thus: Antiproliferative activity against human NB4 cells after 48 hrs by MTT assay. The format is functional, cell-based. The note with it: NB-4, 48 h. (Tetrazolium assays rely on reduction of a dye to a coloured formazan, in cell work by metabolically active cells.)
Series [2] deals with K562. The series can be described thus: Antiproliferative activity against human K562 cells after 48 hrs by MTT assay. The format is functional, cell-based. Particulars: K562, 48 h; call rule not given here.
For series [3], the system named is HL-60. The series can be described thus: Antiproliferative activity against human HL60 cells after 48 hrs by MTT assay. In kind it is functional, cell-based. The note with it: HL-60, 48 h.
The nature of series [4]: Induction of NO release from L-cysteine in phosphate buffer at pH 7.4 at 0.4 mM after 3 hrs by Griess assay. In kind it is physicochemical. Particulars: pH 7.4, 3 h, 400 µM. (The Griess reaction detects nitrite, a stable product of nitric oxide.)
Series [5] relates to K562. The series is described as follows: Ratio of tamibarotene IC50 to compound IC50 for human K562 cells. In kind it is functional.
In series [6] the test system is NB-4. The series is described as follows: Ratio of tamibarotene IC50 to compound IC50 for human NB4 cells. The format is functional.
Series [7] relates to HL-60. The series is described as follows: Ratio of tamibarotene IC50 to compound IC50 for human HL60 cells. The format is functional.

The structures appear in SMILES notation.

As a reminder, the IC50 is the concentration at which inhibition is half-maximal.

`CC1(C)CCC(C)(C)c2cc(NC(=O)c3ccc(C(=O)NCCOC(=O)c4ccc(OCc5c(-c6ccccc6)no[n+]5[O-])cc4)cc3)ccc21`: the IC50 was 10.4 µM in the series on NB-4 [1], over 1000 µM in the series with K562 [2] and 12.3 µM in the series with HL-60 [3]. Besides, in series [4], the result was Active.
As to `CC(C)C[C@H](NC(=O)c1ccc(C(=O)Nc2ccc3c(c2)C(C)(C)CCC3(C)C)cc1)C(=O)OCc1c(-c2ccccc2)no[n+]1[O-]`, the IC50 in the series on NB-4 [1] was found to be 0.97 µM; in the series with K562 [2], 64 µM; in the series on HL-60 [3], 0.74 µM. Also, in series [4], the outcome was Active.
As to `CC1(C)CCC(C)(C)c2cc(NC(=O)c3ccc(C(=O)OCCCCCOC(=O)c4ccc(OCc5c(-c6ccccc6)no[n+]5[O-])cc4)cc3)ccc21`, the figures for the IC50 in the series on NB-4 [1], in the series on K562 [2] and in the series on HL-60 [3] were 240 µM, over 1000 µM and 282 µM, respectively. In addition, the outcome in series [4] was Active.
Take `CC1(C)CCC(C)(C)c2cc(NC(=O)c3ccc(C(=O)OCCCOC(=O)c4ccc(OCc5c(-c6ccccc6)no[n+]5[O-])cc4)cc3)ccc21`: the IC50 is 140 µM in the series on NB-4 [1], over 1000 µM with K562 [2] and 185 µM in the series with HL-60 [3]. Besides, the outcome in series [4] was Active.
Take `CC1(C)CCC(C)(C)c2cc(NC(=O)c3ccc(C(=O)OCCCCOC(=O)c4ccc(OCc5c(-c6ccccc6)no[n+]5[O-])cc4)cc3)ccc21`: the IC50 was 952 µM in the series on NB-4 [1], over 1000 µM in the series on K562 [2] and 651 µM in the series on HL-60 [3]. Further, the result in series [4] was Active.
For `CC1(C)CCC(C)(C)c2cc(NC(=O)c3ccc(C(=O)N[C@@H](Cc4ccccc4)C(=O)OCc4c(-c5ccccc5)no[n+]4[O-])cc3)ccc21`, the IC50 came out at 0.75 µM in the series with NB-4 [1], 22.6 µM in the series with K562 [2] and 0.5 µM in the series on HL-60 [3]. The outcome in series [4] was Active.
Regarding `C[C@H](NC(=O)c1ccc(C(=O)Nc2ccc3c(c2)C(C)(C)CCC3(C)C)cc1)C(=O)OCc1c(-c2ccccc2)no[n+]1[O-]`, the IC50 in the series with NB-4 [1] was 5.1 µM; in the series with K562 [2], 60.4 µM; in the series on HL-60 [3] it was 6.97 µM. Moreover, in series [4], the outcome was Active.
As to `CC1(C)CCC(C)(C)c2cc(NC(=O)c3ccc(C(=O)OCCOC(=O)c4ccc(OCc5c(-c6ccccc6)no[n+]5[O-])cc4)cc3)ccc21`, the half-maximal inhibitory concentration (IC50) in the series on NB-4 [1] was 119 µM; with K562 [2], over 1000 µM; with HL-60 [3] it was 395 µM. The outcome in series [4] was Active.
Consider `CC1(C)CCC(C)(C)c2cc(NC(=O)c3ccc(C(=O)NCC(=O)OCc4c(-c5ccccc5)no[n+]4[O-])cc3)ccc21`, for which the entries for the “Ratio IC50” value in the series with K562 [5], with NB-4 [6] and in the series with HL-60 [7] were 6, 25 and 56, respectively. In addition, the IC50 in the series with NB-4 [1] came to 0.19 µM; with K562 [2] it was 7.12 µM; in the series with HL-60 [3] it was 0.16 µM. The result in series [4] was Active.
For the molecule `CC(C)[C@H](NC(=O)c1ccc(C(=O)Nc2ccc3c(c2)C(C)(C)CCC3(C)C)cc1)C(=O)OCc1c(-c2ccccc2)no[n+]1[O-]`, the IC50 turned out to be 4.39 µM in the series on NB-4 [1], 192 µM in the series with K562 [2] and 5.85 µM in the series on HL-60 [3]. Further, in series [4], the outcome was Active.
Turning to `CC1(C)CCC(C)(C)c2cc(NC(=O)c3ccc(C(=O)OCCCCCCOC(=O)c4ccc(OCc5c(-c6ccccc6)no[n+]5[O-])cc4)cc3)ccc21`, the IC50 in the series with NB-4 [1] is over 1000 µM; in the series with K562 [2], over 1000 µM; with HL-60 [3], 486 µM. Besides, the outcome in series [4] was Active.
As to `CC1(C)CCC(C)(C)c2cc(NC(=O)c3ccc(C(=O)NCCNC(=O)c4ccc(OCc5c(-c6ccccc6)no[n+]5[O-])cc4)cc3)ccc21`, the IC50 in the series with NB-4 [1] came to 1.93 µM; with K562 [2], 13.3 µM; with HL-60 [3], 1.14 µM. Besides, in series [4], the result was Active.
For the molecule `CC1(C)CCC(C)(C)c2cc(NC(=O)c3ccc(C(=O)O)cc3)ccc21` [TAMIBAROTENE], the IC50 in the series with NB-4 [1] was found to be 4.81 µM; in the series with K562 [2], 42.4 µM; in the series with HL-60 [3], 8.94 µM.

The values are drawn from ChEMBL document CHEMBL1921731, “Novel antileukemic agents derived from tamibarotene and nitric oxide donors” (Bioorg Med Chem Lett, 2011).
